Activity calls are given as the source filed them.
Key:
Type in all cases: functional
Fatty acid synthase [1] = target: T1, Fatty acid synthase (Homo sapiens, UniProt P49327); experiment: FAS thioesterase domain inhibitors, dose response, biochemical, kinetic fluorescence intensity (AID 624326);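 also: rate of fluorescence rise from hydrolysis of a fluorogenic O-methyl fluorescein ester substrate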
[2] = target: Multidrug resistance protein CDR1 (Candida albicans, UniProt P43071); experiment: CaCDR1 efflux pump inhibitors in yeast, dose response, S. cerevisiae AD1-8u, singleplex, Cherry Pick1 hits (AID 588606)
Fatty acid synthase [3] = target: T1, Fatty acid synthase; experiment: FAS thioesterase domain inhibitors, dose response, biochemical, endpoint fluorescence intensity, uHTS hits (AID 624327);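 also: fluorescence from hydrolysis of an O-methyl fluorescein acyl ester substrate by the enzyme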
[4] = target: T2, Neuropeptides B/W receptor type 1 (Homo sapiens, UniProt P48145); experiment: GPR7 antagonist potency, late-stage follow-up, cell-based, fluorescence, dose response, set 6 (AID 588583)
T2 sequence (P48145 whole entry): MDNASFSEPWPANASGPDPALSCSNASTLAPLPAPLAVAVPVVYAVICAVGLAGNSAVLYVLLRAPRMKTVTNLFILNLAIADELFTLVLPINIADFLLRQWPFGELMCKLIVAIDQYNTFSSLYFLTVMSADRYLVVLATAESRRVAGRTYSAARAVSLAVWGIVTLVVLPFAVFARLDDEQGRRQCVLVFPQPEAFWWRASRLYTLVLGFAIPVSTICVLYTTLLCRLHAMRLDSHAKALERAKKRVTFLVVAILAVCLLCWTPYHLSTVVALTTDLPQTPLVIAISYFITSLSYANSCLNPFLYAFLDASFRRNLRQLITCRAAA

[5] = target: Melanin-concentrating hormone receptor 1 (Homo sapiens, UniProt Q99705); experiment: Late-stage fluorescence-based counterscreen for antagonists of the G-protein coupled receptor 7 (GPR7): cell-based dose response assay to identify antagonists of the melanin-concentrating hormone receptor 1 (MCHR1) Set 6.
[6] = target: Dual specificity tyrosine-phosphorylation-regulated kinase 4 (Homo sapiens, UniProt Q9NR20)
[7] = target: Tyrosine-protein kinase receptor UFO (Homo sapiens, UniProt P30530)
[8] = target: Protein kinase C gamma type (Homo sapiens, UniProt P05129)
[9] = target: Cyclin-dependent kinase 1 (Homo sapiens, UniProt P06493);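 also: Kinome-wide panel profiling, with the target listed as panel member CDC2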
[10] = target: Dual specificity tyrosine-phosphorylation-regulated kinase 3 (Homo sapiens, UniProt O43781);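 also: measured as one member of a broad kinase panel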
[11] = target: G protein-coupled receptor kinase 5 (Homo sapiens, UniProt P34947); experiment: Navigating the Kinome. Panel member name: GPRK5
[12] = target: Eukaryotic elongation factor 2 kinase (Homo sapiens, UniProt O00418)
[13] = target: Cell division cycle 7-related protein kinase (Homo sapiens, UniProt O00311);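 also: value obtained from a kinome-wide kinase panel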
[14] = target: MAP kinase-activated protein kinase 3 (Homo sapiens, UniProt Q16644);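 also: value comes from a kinome-wide profiling panel in which MAPKAPK3 is one of the panel members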
[15] = target: Protein-tyrosine kinase 6 (Homo sapiens, UniProt Q13882)
[16] = target: Testis-specific serine/threonine-protein kinase 2 (Homo sapiens, UniProt Q96PF2);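 also: part of the Navigating the Kinome panel, target entry STK22B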
[17] = target: Lymphokine-activated killer T-cell-originated protein kinase (Homo sapiens, UniProt Q96KB5);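 also: value comes from a kinase panel screen in which TOPK was one of the panel members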
[18] = target: Proto-oncogene tyrosine-protein kinase Src (Homo sapiens, UniProt P12931);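 also: SRC entry within a kinome-wide kinase profiling panel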
[19] = target: Tyrosine-protein kinase Fyn (Homo sapiens, UniProt P06241)
[20] = target: Protein kinase C zeta type (Homo sapiens, UniProt Q05513);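 also: measured as one member of a broad kinase profiling panel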

T1 sequence (P49327 whole entry, the tested form may be a part): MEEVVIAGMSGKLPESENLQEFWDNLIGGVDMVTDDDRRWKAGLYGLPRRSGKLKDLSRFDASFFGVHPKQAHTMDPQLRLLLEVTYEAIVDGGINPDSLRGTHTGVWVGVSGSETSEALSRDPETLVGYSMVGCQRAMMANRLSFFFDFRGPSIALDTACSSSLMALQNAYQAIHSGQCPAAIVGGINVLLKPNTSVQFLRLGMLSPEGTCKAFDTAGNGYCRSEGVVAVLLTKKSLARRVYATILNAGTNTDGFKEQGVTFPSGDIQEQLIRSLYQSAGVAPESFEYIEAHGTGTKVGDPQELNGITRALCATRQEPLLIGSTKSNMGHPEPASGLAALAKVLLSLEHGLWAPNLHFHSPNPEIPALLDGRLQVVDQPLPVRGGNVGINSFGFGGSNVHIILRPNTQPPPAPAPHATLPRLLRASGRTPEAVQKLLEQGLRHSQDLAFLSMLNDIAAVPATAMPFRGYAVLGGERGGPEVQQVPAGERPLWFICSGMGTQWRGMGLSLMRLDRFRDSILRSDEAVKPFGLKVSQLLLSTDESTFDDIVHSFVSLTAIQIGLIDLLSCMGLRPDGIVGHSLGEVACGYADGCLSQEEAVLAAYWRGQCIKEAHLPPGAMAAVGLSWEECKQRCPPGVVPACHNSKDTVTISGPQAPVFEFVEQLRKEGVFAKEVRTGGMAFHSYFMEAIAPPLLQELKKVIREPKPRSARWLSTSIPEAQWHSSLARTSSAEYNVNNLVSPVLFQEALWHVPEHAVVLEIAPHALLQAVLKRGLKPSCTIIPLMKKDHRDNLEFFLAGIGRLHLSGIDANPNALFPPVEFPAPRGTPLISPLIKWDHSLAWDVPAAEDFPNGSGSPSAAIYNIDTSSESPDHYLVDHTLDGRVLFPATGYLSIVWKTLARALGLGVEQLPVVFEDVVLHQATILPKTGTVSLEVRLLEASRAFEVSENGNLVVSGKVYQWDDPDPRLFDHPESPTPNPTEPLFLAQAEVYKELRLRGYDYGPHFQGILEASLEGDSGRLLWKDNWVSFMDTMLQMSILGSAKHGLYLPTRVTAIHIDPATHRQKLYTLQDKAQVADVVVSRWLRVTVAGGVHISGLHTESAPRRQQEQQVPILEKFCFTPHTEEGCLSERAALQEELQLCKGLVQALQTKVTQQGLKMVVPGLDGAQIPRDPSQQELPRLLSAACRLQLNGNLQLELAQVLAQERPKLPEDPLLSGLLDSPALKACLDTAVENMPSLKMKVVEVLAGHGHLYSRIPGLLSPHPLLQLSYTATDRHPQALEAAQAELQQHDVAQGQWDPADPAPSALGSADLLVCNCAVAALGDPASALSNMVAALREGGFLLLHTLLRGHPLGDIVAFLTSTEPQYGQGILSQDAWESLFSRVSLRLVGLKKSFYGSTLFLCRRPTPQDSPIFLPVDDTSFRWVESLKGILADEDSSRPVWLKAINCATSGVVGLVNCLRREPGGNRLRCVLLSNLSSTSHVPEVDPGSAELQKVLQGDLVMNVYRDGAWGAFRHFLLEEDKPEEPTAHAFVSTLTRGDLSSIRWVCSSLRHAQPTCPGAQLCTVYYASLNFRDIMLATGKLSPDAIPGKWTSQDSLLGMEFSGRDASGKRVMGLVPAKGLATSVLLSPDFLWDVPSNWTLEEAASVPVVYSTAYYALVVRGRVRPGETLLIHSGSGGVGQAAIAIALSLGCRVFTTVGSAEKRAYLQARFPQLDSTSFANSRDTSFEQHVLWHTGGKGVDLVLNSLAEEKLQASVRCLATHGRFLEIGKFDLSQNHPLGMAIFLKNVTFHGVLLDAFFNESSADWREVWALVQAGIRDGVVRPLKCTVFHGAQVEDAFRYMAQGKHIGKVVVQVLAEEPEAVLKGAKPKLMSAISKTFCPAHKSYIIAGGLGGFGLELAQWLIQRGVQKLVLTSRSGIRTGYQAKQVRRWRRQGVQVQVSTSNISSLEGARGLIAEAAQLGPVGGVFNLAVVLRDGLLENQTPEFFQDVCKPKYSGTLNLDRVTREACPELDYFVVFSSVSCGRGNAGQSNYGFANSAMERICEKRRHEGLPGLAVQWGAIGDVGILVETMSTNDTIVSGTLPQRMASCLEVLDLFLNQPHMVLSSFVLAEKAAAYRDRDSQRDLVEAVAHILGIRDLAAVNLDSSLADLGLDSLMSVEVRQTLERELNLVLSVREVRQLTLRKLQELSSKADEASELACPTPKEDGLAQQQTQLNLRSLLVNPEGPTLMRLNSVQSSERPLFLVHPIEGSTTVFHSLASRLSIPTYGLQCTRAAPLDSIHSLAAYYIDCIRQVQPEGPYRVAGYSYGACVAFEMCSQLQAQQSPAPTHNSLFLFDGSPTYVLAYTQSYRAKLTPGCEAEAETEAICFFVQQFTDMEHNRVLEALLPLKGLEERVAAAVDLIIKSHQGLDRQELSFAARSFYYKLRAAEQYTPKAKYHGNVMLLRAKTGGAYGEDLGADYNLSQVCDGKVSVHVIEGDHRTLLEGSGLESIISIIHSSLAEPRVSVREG
Chain of Dual specificity tyrosine-phosphorylation-regulated kinase 3 (O43781 whole entry): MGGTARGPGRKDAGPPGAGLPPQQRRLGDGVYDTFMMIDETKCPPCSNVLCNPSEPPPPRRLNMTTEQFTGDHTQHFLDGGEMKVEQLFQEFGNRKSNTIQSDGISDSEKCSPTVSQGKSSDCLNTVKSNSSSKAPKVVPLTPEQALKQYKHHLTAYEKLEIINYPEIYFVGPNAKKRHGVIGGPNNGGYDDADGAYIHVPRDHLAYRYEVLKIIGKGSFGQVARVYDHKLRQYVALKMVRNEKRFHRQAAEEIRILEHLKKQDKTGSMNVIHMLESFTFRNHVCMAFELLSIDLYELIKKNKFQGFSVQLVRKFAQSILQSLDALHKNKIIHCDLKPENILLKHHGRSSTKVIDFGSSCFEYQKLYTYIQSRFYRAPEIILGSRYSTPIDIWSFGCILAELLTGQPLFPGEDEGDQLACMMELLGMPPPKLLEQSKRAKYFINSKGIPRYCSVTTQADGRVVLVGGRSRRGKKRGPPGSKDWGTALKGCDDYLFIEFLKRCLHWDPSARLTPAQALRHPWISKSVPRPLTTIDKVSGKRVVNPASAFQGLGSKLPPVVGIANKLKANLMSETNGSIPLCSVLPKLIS
Chain of Eukaryotic elongation factor 2 kinase (O00418 whole entry): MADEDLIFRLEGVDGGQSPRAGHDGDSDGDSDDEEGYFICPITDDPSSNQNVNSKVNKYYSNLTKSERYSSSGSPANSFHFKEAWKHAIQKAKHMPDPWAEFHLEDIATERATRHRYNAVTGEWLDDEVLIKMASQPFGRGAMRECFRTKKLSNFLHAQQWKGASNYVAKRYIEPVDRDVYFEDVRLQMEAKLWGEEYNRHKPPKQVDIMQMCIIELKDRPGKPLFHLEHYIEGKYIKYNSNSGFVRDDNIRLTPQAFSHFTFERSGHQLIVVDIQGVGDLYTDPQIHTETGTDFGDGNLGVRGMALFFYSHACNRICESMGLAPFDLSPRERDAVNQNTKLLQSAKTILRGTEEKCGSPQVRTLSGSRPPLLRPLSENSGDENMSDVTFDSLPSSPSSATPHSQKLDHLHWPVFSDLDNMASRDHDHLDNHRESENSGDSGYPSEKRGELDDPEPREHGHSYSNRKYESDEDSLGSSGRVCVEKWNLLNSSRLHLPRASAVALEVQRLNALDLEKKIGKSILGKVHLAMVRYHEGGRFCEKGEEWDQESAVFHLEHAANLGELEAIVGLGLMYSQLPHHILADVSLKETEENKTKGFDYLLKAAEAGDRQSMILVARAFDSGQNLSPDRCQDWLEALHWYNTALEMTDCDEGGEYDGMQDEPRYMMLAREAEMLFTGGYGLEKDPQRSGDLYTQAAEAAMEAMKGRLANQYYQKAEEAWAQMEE
Chain of Dual specificity tyrosine-phosphorylation-regulated kinase 4 (Q9NR20 whole entry): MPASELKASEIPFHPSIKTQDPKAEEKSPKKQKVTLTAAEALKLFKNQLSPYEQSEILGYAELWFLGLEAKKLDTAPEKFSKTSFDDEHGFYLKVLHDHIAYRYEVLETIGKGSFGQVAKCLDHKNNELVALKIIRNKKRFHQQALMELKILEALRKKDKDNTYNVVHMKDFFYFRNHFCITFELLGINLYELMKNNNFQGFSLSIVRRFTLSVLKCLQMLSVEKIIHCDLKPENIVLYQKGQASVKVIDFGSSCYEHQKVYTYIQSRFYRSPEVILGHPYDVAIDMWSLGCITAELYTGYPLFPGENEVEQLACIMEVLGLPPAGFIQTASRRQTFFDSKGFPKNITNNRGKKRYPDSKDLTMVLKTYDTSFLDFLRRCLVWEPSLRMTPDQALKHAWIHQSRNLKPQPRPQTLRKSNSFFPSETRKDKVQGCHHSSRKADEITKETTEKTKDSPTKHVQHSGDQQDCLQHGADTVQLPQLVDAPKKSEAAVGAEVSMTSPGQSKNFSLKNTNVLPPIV

COc1ccc(NC(=O)Nc2cccc3c2O[C@H](CN(C)C(=O)NC2CCCCC2)[C@@H](C)CN([C@H](C)CO)C3=O)cc1
IC50 (Fatty acid synthase [1]): 3.35 µM (active)
EC50 [2]: 8.86 µM (active)
IC50 (Fatty acid synthase [3]): 3.56 µM (active)

N#CC(c1ccccc1)c1c(Cl)cnn(C2c3ccccc3-c3ccccc32)c1=O (stereo not given)
IC50 [4]: 2.22 µM (active)
IC50 [5]: 2.22 µM (active)

COc1cc2c(Oc3ccc4[nH]c(C)cc4c3F)ncnc2cc1OCCCN1CCCC1 [CEDIRANIB]
Ki [6]: > 7.94 µM (inactive)
Ki [7]: 0.316 µM (active)
Ki [8]: > 7.94 µM (inactive)
Ki [9]: > 7.94 µM (inactive)
Ki [10]: > 6.31 µM (inactive)
Ki [11]: > 3.98 µM (inactive)
Ki [12]: > 3.98 µM (inactive)
Ki [13]: > 1.26 µM (inactive)
Ki [14]: > 10 µM (inactive)
Ki [15]: 0.0398 µM (active)
Ki [16]: > 1.58 µM (inactive)
Ki [17]: > 10 µM (inactive)
Ki [18]: 0.0501 µM (active)
Ki [19]: 0.501 µM (active)
Ki [20]: > 7.94 µM (inactive)

Source: ChEMBL document CHEMBL1201862, “PubChem BioAssay data set” (2004)
